{
  "source": "patent US20050250837A1",
  "about": "“Use of C-Raf inhibitors for the treatment of neurodegenerative diseases” (priority 2002, published 2005)",
  "system": "B-Raf",
  "assay": "Activity of B-Raf immunoprecipitated from neuronal lysates, MEK substrate",
  "assay_type": "cell-based, rat",
  "details": "LK + 1 uM GW5074, 1 hour",
  "method": "The reaction mixture was subjected to Western analysis using a phospho-MEK antibody as probe.\nActivities of endogenous C-Raf and B-Raf activity was assayed by measuring the ability of kinase immunoprecipitated from neuronal lysates to phosphorylate a kinase-dead recombinant GST-MEK1 substrate. Following immunoprecipitation and multiple washes with lysis buffer, lysis buffer supplemented with 350 mM NaCl, and kinase buffer (25 mM HEPES pH 7.4 and 10 mM MgCl2), in vitro kinase assays are performed on the immune complexes using purified recombinant GST-MEK1 K97M protein as a substrate in kinase buffer supplemented with 85 μM ATP for 35 minutes at 30° C. Reactions are stopped by the addition of 3×SDS sample buffer and boiled for five minutes. Proteins are resolved by SDS-PAGE and subjected to Western blotting. The level of phosphorylated MEK is detected by a phospho-MEK antibody.",
  "data": [
    {"smiles": "O=C1Nc2ccc(I)cc2C1=Cc1cc(Br)c(O)c(Br)c1", "note": "[GW5074, 5-Iodo-3-[(3,5-dibromo-4-hydroxyphenyl)methylene]-2-indolinone]", "values": [
      {"measurement": "B-Raf activity in neurons", "result": "elevated further"}
    ]}
  ]
}
